The source of these data is patent publication US11207312B2, “Metallo-beta-lactamase inhibitors and methods of use thereof” (priority 2017, dated 2021).

≈ marks a conversion by molar mass, not a printed value.

Data set [1] relates to MB5890 (OprD+, efflux-). Kind of data set: microbe, parasite or virus in culture. In kind it is cell-based, Pseudomonas aeruginosa. An excerpt: (§1) The strain background is Pseudomonas aeruginosa PAO1. A wild-type (M135919) and an isogenic strain in which multiple efflux pumps have been disrupted genetically were used. The MBL IMP-1, obtained from a clinical isolate was introduced into the strain pair by the following process:
(§2) The plasmid DNA was transformed into parental MB5919 (oprD+, efflux+, inducible AmpC) and MB5890 (oprD+, efflux−, inducible AmpC) isogenic strains by electroporation.
(§3) Minimum inhibitory concentrations of sentinel antibiotics were performed to quality control the new strains.

In data set [2] the test system is MB5919 (OprD+, efflux+). As to the kind of experiment: microbe, parasite or virus in culture. In kind it is cell-based, Pseudomonas aeruginosa.
Source text: as §1, §2, §3

Data set [3] has as its system MB9798 (efflux+ MB5919 Trans IMP1 plasmid). Kind of data set: microbe, parasite or virus in culture. It counts as cell-based, Pseudomonas aeruginosa.
Source text: as §1, §2, §3

In data set [4] the test system is MB9799 (efflux- MB5890 Trans IMP1 plasmid). Kind of data set: microbe, parasite or virus in culture. It counts as cell-based, Pseudomonas aeruginosa.
Source text: as §1, §2, §3

The subject of data set [5] is MB9861 (Efflux+ MB5919 Trans pFlp-Vim1 plasmid). Kind of data set: microbe, parasite or virus in culture. It counts as cell-based, Pseudomonas aeruginosa.
Data set [6] has as its system MB9862 (efflux- MB5890 trans pFlp-Vim1). Kind of data set: microbe, parasite or virus in culture. It counts as cell-based, Pseudomonas aeruginosa.
For data set [7], the system named is efflux+ MB5919 Trans pFlp-Vim2 plasmid. As to the kind of experiment: microbe, parasite or virus in culture. It counts as cell-based, Pseudomonas aeruginosa.
The subject of data set [8] is efflux- MB5890 Trans pFlp-Vim2 plasmid. Kind of data set: microbe, parasite or virus in culture. In kind it is cell-based, Pseudomonas aeruginosa.
Data set [9] deals with NDM-1 (Klebsiella pneumoniae, UniProt C7C422). As to the kind of experiment: biochemical. It counts as biochemical. The following applies: CCF2-FA fluorescence assay, 2 hours at 25° C. The method, boiled down:
(§4)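 Buffer 100 mM KH2PO4 pH 7, 0.005% Tween-20, 10 μM ZnSO4. NDM-1 1 pM, IMP-1 2 pM, VIM-1 30 pM final; CCF2-FA 1.25 μM. Cpd 20–0.00063 μM, 2 h, 25° C. Ex 405/Em 460 nm; IC50 via 4-parameter curve.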

The target in data set [10] is IMP-1 (Serratia marcescens, UniProt P52699). As to the kind of experiment: biochemical. The following applies: CCF2-FA fluorescence assay, 2 hours at 25° C.; read-out: IMP1 IC50. The method, boiled down:
as §4

The target in data set [11] is VIM-1 (Pseudomonas aeruginosa (strain ATCC 15692 / DSM 22644 / CIP 104116 / JCM 14847 / LMG 12228 / 1C / PRS 101 / PAO1), UniProt A0A0F7KYQ8). Kind of data set: biochemical. The following applies: CCF2-FA fluorescence assay, 2 hours at 25° C.; read-out: VIM1 IC50. The method, boiled down: as §4
Data set [12] deals with VIM-2 (Escherichia coli, UniProt Q5U7L7). Kind of data set: biochemical. The following applies: CCF2-FA fluorescence assay; read-out: VIM2 IC50.
Data set [13] concerns Escherichia coli expressing NDM-1 (CLB30016). In kind it is cell-based. The following applies: with imipenem 1 μg/ml; 95% inhibition of bacterial growth. The method in brief:
(§5)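 Each strain, diluted 1:100 from saline suspension into 1.1× CAMHB, was combined with imipenem held at 1 μg/ml and graded inhibitor. Growth after 22–24 h at 35 °C was measured by absorbance, and the lowest concentration achieving 95% inhibition defined MITC95.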

The subject of data set [14] is Klebsiella pneumoniae expressing VIM-1 (IHMA599644). It counts as cell-based. The following applies: with imipenem 1 μg/ml; 95% inhibition of bacterial growth. The method, boiled down:
as §5

Data set [15] has as its system Serratia marcescens expressing IMP-1 (CL5741). It counts as cell-based. The following applies: with imipenem 1 μg/ml; 95% inhibition of bacterial growth. The method, boiled down: as §5
Data set [16] deals with P. aeruginosa MB9798 (efflux+, IMP-1 plasmid). The method in brief:
(§6)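 PAO1-derived isogenic pair (oprD+, inducible AmpC), efflux+ MB5919 or efflux− MB5890 parent, carrying an electroporated IMP-1 plasmid from a clinical isolate. Microbroth MIC with fixed imipenem and/or ceftazidime (usually CLSI breakpoint) plus fixed class A/C inhibitor; MBL inhibitor serially titrated, concentration restoring susceptibility recorded.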

Data set [17] concerns P. aeruginosa MB9799 (efflux-, IMP-1 plasmid). It counts as cell-based, Pseudomonas aeruginosa. The following applies: efflux − (MB9799) strain; imipenem at 2 μg/mL; in the presence of a class A, C, D serine β-lactamase inhibitor closely related to relebactam. The method, boiled down:
as §6

Where [18] appears, read: MB9798, OprD+, efflux+, MB5919 Trans IMP1 plasmid (CL 5673).
The mark [19] stands for this setting: MB9799, OprD+, efflux−, MB5890 Trans IMP1 plasmid (CL 5673).
The mark [20] stands for this setting: MB9861, OprD+, Efflux+, MB5919 Trans pFlp-Vim1 plasmid.
Setting [21] is: MB9862, OprD+, efflux−, MB5890 trans pFlp-Vim1.
The mark [22] stands for this setting: OprD+, efflux+, MB5919 Trans pFlp-Vim2 plasmid.
Setting [23] is: OprD+, efflux−, MB5890 Trans pFlp-Vim2 plasmid.

Chain of IMP-1 (P52699 whole entry, looked up, species assumed): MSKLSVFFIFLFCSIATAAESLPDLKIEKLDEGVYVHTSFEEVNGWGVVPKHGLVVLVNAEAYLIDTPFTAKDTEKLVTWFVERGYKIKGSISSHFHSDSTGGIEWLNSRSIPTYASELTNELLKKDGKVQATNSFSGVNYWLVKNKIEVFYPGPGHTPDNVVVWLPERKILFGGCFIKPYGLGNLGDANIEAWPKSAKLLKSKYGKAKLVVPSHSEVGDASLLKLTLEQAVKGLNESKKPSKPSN
Chain of NDM-1 (C7C422 whole entry, looked up, species assumed): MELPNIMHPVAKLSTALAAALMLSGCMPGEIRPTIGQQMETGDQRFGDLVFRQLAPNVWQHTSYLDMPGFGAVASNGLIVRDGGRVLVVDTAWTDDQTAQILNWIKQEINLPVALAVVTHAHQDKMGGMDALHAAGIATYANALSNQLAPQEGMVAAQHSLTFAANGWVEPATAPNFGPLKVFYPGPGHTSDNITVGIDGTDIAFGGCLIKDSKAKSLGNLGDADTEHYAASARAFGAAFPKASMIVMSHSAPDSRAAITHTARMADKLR

With `CC[C@H]1OC(=O)[C@H](C)[C@@H](O[C@H]2C[C@@](C)(OC)[C@@H](O)[C@H](C)O2)[C@H](C)[C@@H](O[C@@H]2O[C@H](C)C[C@H](N(C)C)[C@H]2O)[C@](C)(O)C[C@@H](C)CN(C)[C@H](C)[C@@H](O)[C@]1(C)O` [Azithromycin], the MIC came to 1 µg/mL (≈ 1.34 µM) in [1] (Pseudomonas aeruginosa); 16 µg/mL (≈ 21.4 µM) in [2] (Pseudomonas aeruginosa); 2 µg/mL (≈ 2.67 µM) in data set [3] (Pseudomonas aeruginosa); 2 µg/mL (≈ 2.67 µM) in [4] (Pseudomonas aeruginosa); 32 µg/mL (≈ 42.7 µM) in data set [5] (Pseudomonas aeruginosa); 1 µg/mL (≈ 1.34 µM) in data set [6] (Pseudomonas aeruginosa). The MIC in [7] (Pseudomonas aeruginosa) is 32 µg/mL (≈ 42.7 µM); in [8] (Pseudomonas aeruginosa), 1 µg/mL (≈ 1.34 µM).

Turning to `C[C@@H](O)[C@H]1C(=O)N2C(C(=O)O)=C(SCCN=CN)C[C@H]12` [Imipenem, imipenem], the MIC in data set [1] (MB5890, OprD+, efflux−) is 2 µg/mL (≈ 6.68 µM); in [2] (MB5919, OprD+, efflux+), 4 µg/mL (≈ 13.4 µM); in data set [3] (setting [18]) it was 64 µg/mL (≈ 214 µM); in data set [4] (setting [19]), 32 µg/mL (≈ 107 µM); in [5] (setting [20]), more than 64 µg/mL; in data set [6] (setting [21]), 64 µg/mL (≈ 214 µM). For the same molecule, the MIC in data set [7] (setting [22]) was more than 64 µg/mL; in data set [8] (setting [23]), 32 µg/mL (≈ 107 µM).

Regarding `C[C@@H](O)[C@H]1C(=O)N2C(C(=O)O)=C(S[C@@H]3CN[C@H](C(=O)N(C)C)C3)[C@H](C)[C@H]12` [Meropenem, meropenem], the MIC in [1] (MB5890, OprD+, efflux−) was 0.5 µg/mL (≈ 1.3 µM); in data set [2] (MB5919, OprD+, efflux+), 2 µg/mL (≈ 5.22 µM); in data set [3] (setting [18]), more than 64 µg/mL; in data set [4] (setting [19]), 64 µg/mL (≈ 167 µM); in data set [5] (setting [20]) it was more than 64 µg/mL; in data set [6] (setting [21]) it was 64 µg/mL (≈ 167 µM). The MIC in data set [7] (setting [22]) is more than 64 µg/mL; in data set [8] (setting [23]), 32 µg/mL (≈ 83.4 µM).

For `CC(C)(O/N=C(\C(=O)N[C@@H]1C(=O)N2C(C(=O)[O-])=C(C[n+]3ccccc3)CS[C@H]12)c1csc(N)n1)C(=O)O` [CAZ, ceftazidime], the MIC is 0.5 µg/mL (≈ 0.915 µM) in [1] (MB5890, OprD+, efflux−); 1 µg/mL (≈ 1.83 µM) in [2] (MB5919, OprD+, efflux+); 256 µg/mL (≈ 468 µM) in data set [3] (setting [18]); 256 µg/mL (≈ 468 µM) in data set [4] (setting [19]); more than 256 µg/mL in data set [5] (setting [20]); more than 256 µg/mL in data set [6] (setting [21]). In addition, the MIC is 128 µg/mL (≈ 234 µM) in [7] (setting [22]) and 64 µg/mL (≈ 117 µM) in data set [8] (setting [23]).

As for `CCN1CCN(C(=O)N[C@@H](C(=O)N[C@@H]2C(=O)N3[C@@H]2SC(C)(C)[C@@H]3C(=O)O)c2ccccc2)C(=O)C1=O` [Pipercillin, piperacillin], the MIC in data set [1] (MB5890, OprD+, efflux−) is 1 µg/mL (≈ 1.93 µM); in [2] (MB5919, OprD+, efflux+), 2 µg/mL (≈ 3.86 µM); in [3] (setting [18]), 4 µg/mL (≈ 7.73 µM); in data set [4] (setting [19]) it was 4 µg/mL (≈ 7.73 µM); in data set [5] (setting [20]) it was more than 256 µg/mL; in data set [6] (setting [21]) it was 128 µg/mL (≈ 247 µM). Also, the figures for the MIC in [7] (setting [22]) and in data set [8] (setting [23]) were more than 256 µg/mL and 128 µg/mL (≈ 247 µM), respectively.

With `O=C(N[C@H](CO)[C@H](O)c1ccc([N+](=O)[O-])cc1)C(Cl)Cl` [Chloramphenicol, chloramphenicol], the MIC in data set [1] (Pseudomonas aeruginosa) was 1 µg/mL (≈ 3.09 µM); in [2] (Pseudomonas aeruginosa) it was more than 64 µg/mL; in data set [3] (Pseudomonas aeruginosa), more than 64 µg/mL; in data set [4] (Pseudomonas aeruginosa) it was 1 µg/mL (≈ 3.09 µM); in data set [5] (Pseudomonas aeruginosa), more than 64 µg/mL; in data set [6] (Pseudomonas aeruginosa) it was 2 µg/mL (≈ 6.19 µM). Besides, the MIC in [7] (Pseudomonas aeruginosa) was more than 64 µg/mL; in data set [8] (Pseudomonas aeruginosa), 1 µg/mL (≈ 3.09 µM).

One may read the IC50 as the concentration that gives 50% inhibition. On to `NC[C@@H](O)CNS(=O)(=O)c1ccc(N2CCC3(CC2)CNC(N)=N3)c(-c2nn[nH]n2)c1S(N)(=O)=O` [Example 171, (R)—N1-(3-amino-2-hydroxypropyl)-4-(2-amino-1,3,8-triazaspiro [4.5]dec-1-en-8-yl)-3-(2H-tetrazol-5-yl)benzene-1,2-disulfonamide], for which the IC50 in data set [9] stood at 3.38 nM; in data set [10], 7.39 nM; in data set [11], 0.92 nM; in [12] it was 27.8 nM. In addition, the “CLB30016 E. coli MITC95 NDM” value in [13] came to 0.39 µM. Moreover, the “IHMA599644 K. pneumoniae MITC95 VIM” value in data set [14] was found to be 0.78 µM. The “CL5741 S. marcescens MITC95 IMP” value in data set [15] was found to be 0.78 µM. In addition, in [16] (efflux + (MB9798) strain, imipenem at 2 μg/mL, in the presence of a class A, C, D serine β-lactamase inhibitor closely related to relebactam), the “MB9798 MITC95 P. aeruginosa uM Efflux WT” value came to 0.78 µM. The Efflux ratio in [16] (fold difference between efflux+ (MB9798) and efflux− (MB9799) strains) is given as 2.00. Moreover, in [17], the “MB9799 MITC95 P. aeruginosa uM Efflux Mutant” value stood at 0.39 µM.
